According to patent US9187486B2 (AMGEN INC., priority 2011, dated 2015):
Where a name gives a salt, the structure may show the parent alone. Read-outs that look alike come from different tables or passages of the source.

Assays:
Pim-2 = Pim-2 (Homo sapiens (Human), UniProt Q9P1W9); test: Pim enzyme assay (HTRF, phosphorylation of biotinylated-BAD (S112) peptide), Pim-2; type: biochemical
Source text: (§1) Full-length human cDNAs encoding Pim-1 (MGC ID 3913552) or Pim-2 (IMAGE ID 5092935) were purchased from Invitrogen, Carlsbad, Calif. These cDNAs were used as templates in PCR reactions to produce full-length DNA clones of the PIMs. Oligonucleotide PCR primers for Pim-1 were 5′-[…]-3′ and 5′-[…]-3′. Oligonucleotide PCR primers for Pim-2 were 5′-[…]-3′ and 5′-[…]-3′. PCR products were digested with BclI and EcoRI for Pim-1 and BamHI and EcoRI for Pim-2 and ligated into a modified baculovirus transfer vector (pFastBac 1) cleaved with BamHI and EcoRI. For bacterial expression, the same cleaved PCR products encoding Pim-1 or Pim-2 were ligated into a modified E. coli expression vector pET28(a) cleaved with BamHI and EcoRI. Amino-terminal hexahistidine tags followed by a thrombin cleavage site were previously added to the vectors using standard methods of molecular biology. Recombinant baculoviruses expressing Pim-1 or Pim-2 were made using standard methods (Fastbac manual, Invitrogen, Carlsbad, Calif.). Infection of Sf9 cells was done at an m.o.i. of greater than 5 for 24-48 h. Cells were harvested by centrifugation and frozen at −80 C. For E. coli expression, cells carrying pET28-His6-Th-Pim-1 or pET28-His6-Th-Pim-2 were picked from a single colony and grown o/n in LB media. The o/n culture was used to inoculate a 2 liter flask with 500 mL media. This was grown o/n and used to inoculate 15-20 liters of Terrific Broth in a New Brunswick Scientific fermentor. The E. coli were grown at 37° C. to and OD600>1.6. The temperature was dropped to 18° C. and o/n expression was induced with 0.5 mM IPTG. Cells were harvested by centrifugation and frozen at −80° C.
(§2) The frozen cell pellets were thawed by stirring in chilled lysis buffer (0.05 M HEPES, pH 8.0, 0.25 M NaCl, 0.01 M 2-mercaptoethanol, 10% (w/v) glycerol, 0.5% (v/v) protease inhibitor cocktail (Sigma P-8340) at a ratio of 1 L/200 g cells until homogeneous. The thawed suspension was applied to a microfluidizer at 10,000 PSI to disrupt the cells and the whole lysates were clarified by centrifugation at 50,000×g for 90 min, 4° C. Imidazole was added to the clarified lysate to a final concentration of 2.5 mM and the lysate was mixed with 10 mL of Talon resin (Clontech) and the slurry rocked gently overnight at 4° C. The slurry was centrifuged at 1,000×g for 5 min, the supernatant decanted, and the resin suspended in 40 mL of lysis wash buffer (lysis buffer at 0.75 M NaCl). This step was repeated 3× and the resin was transferred to a 2.5 cm glass column. Ten column volumes of wash buffer (0.05 M HEPES, pH 8.0, 0.1 M NaCl, 0.01 M 2-mercaptoethanol, 10% (w/v) glycerol) were applied to the resin followed by 10 column volumes of elution buffer (0.05 M HEPES, pH 8.0, 0.25 M NaCl, 0.01 M 2-mercaptoethanol, 10% (w/v) glycerol, 0.1 M imidazole). Fractions were analyzed by SDS-PAGE and those containing the protein of interest were pooled and concentrated. The concentrated protein was applied to an Amersham Superdex 75 (XK 26/60) column equilibrated in 0.025 M Tris-HCl, pH 7.5, 0.1 M NaCl, 0.01 M 2-mercaptoethanol, 10% (w/v) glycerol. […] Fractions containing the monomeric protein of interest were pooled, concentrated to ˜2 mg/mL, and stored at −80° C.
(§3) The phosphorylation of biotinylated-BAD (S112) peptide by full length recombinant Pim-1, Pim-2, or Pim-3 protein was detected with streptavidin:Allophycocyanin (APC) conjugate and a europium (Eu) labeled antibody directed against phosphorylated-BAD (S112). Excitation of Eu by a high energy laser light (337 nm) leads to a transfer of energy to the APC molecule, and results in an emission at 665 nm. The fluorescence is directly proportional to the amount of phosphorylated BAD peptide present in the reaction.

Pim-1 = Pim-1 (Homo sapiens (Human), UniProt P11309); test: Pim enzyme assay (HTRF, phosphorylation of biotinylated-BAD (S112) peptide), Pim-1; type: biochemical
Source text: as §1, §2, §3

[1] = full length recombinant Pim-2, biotinylated-BAD (S112) peptide, HTRF, read-out: Pim2_IC50
[2] = full length recombinant Pim-1, biotinylated-BAD (S112) peptide, HTRF, read-out: Pim_1_IC50
[3] = full length recombinant Pim-1, biotinylated-BAD (S112) peptide, HTRF, 96-well, read-out: Pim-1 IC50 IP
[4] = full length recombinant Pim-2, biotinylated-BAD (S112) peptide, HTRF, 96-well, read-out: Pim-2 IC50 IP

Sequence of Pim-2 (Q9P1W9 whole entry): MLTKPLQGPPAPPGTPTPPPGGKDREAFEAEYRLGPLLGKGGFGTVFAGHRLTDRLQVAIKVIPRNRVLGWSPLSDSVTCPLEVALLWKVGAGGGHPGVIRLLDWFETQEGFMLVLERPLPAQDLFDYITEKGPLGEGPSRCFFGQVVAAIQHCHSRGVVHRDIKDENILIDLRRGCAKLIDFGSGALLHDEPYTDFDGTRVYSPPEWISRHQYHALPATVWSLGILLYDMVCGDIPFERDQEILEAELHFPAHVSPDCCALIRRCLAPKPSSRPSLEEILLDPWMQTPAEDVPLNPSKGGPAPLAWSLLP
Sequence of Pim-1 (P11309 whole entry): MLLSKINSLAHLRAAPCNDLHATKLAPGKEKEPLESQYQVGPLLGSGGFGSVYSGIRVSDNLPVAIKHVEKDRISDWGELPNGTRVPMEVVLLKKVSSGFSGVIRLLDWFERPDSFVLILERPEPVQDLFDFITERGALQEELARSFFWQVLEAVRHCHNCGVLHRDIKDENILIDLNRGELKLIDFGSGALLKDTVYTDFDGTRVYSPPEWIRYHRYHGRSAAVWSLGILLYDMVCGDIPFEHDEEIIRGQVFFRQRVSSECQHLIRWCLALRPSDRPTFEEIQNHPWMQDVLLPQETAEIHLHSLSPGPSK

Row | SMILES | IC50 (Pim-2; [1]) | IC50 (Pim-1; [2]) | IC50 (Pim-1; [3]) | also measured
1 | O[C@H]1CCCN(c2ccncc2Nc2ncc3ccc(-c4c(F)cccc4F)nn23)C1 [Example 19, (3S)-1-(3-((2-(2,6-difluorophenyl)imidazo[1,5-b]pyridazin-7-yl)amino)-4-pyridinyl)-3-piperidinol] | 30 nM | 3 nM | – | –
2 | c1cc(N2CCNCC2)c(Nc2ncc3ccc(-c4nccs4)nn23)cn1 [Example 3, N-(4-(1-piperazinyl)-3-pyridinyl)-2-(1,3-thiazol-2-yl)imidazo[1,5-b]pyridazin-7-amine] | 154 nM | 54 nM | – | –
3 | O=c1ccc(-c2ccncc2Nc2ncc3ccc(-c4c(F)cccc4F)nn23)c[nH]1 [Example 28, 3′-((2-(2,6-difluorophenyl)imidazo[1,5-b]pyridazin-7-yl)amino)-3,4′-bipyridin-6(1 H)-one] | 281 nM | 38 nM | – | –
4 | Fc1cccc(F)c1-c1ccc2cnc(Nc3cnccc3N3CCCCC3)n2n1 [Example 70, 2-(2,6-difluorophenyl)-N-(4-(piperidin-1-yl)pyridin-3-yl)imidazo[1,5-b]pyridazin-7-amine bis(2,2,2-trifluoroacetate)] | – | – | 29.6 nM | –
5 | N[C@H]1CCN(c2ccncc2Nc2ncc3ccc(-c4c(F)cccc4F)nn23)C1 [Example 13, N-(4-((3S)-3-amino-1-pyrrolidinyl)-3-pyridinyl)-2-(2,6-difluorophenyl)imidazo[1,5-b]pyridazin-7-amine bis(2,2,2-trifluoroacetate)] | > 1000 nM | 568 nM | – | –
6 | Fc1cccnc1-c1ccc2cnc(Nc3cnccc3N3CCCCC3)n2n1 [Example 71, 2-(3-Fluoropyridin-2-yl)-N-(4-(piperidin-1-yl)pyridin-3-yl)imidazo[1,5-b]pyridazin-7-amine bis(2,2,2-trifluoroacetate)] | – | – | 38.5 nM | –
7 | N[C@@H]1C=C(c2ccncc2Nc2ncc3ccc(-c4c(F)cccc4F)nn23)CCC1 (single isomer, unassigned) [Example 84, N-(4-(3-aminocyclohex-1-en-1-yl)pyridin-3-yl)-2-(2,6-difluorophenyl)imidazo[1,5-b]pyridazin-7-amine tris(2,2,2-trifluoroacetate)] | – | – | 30.5 nM | –
8 | N[C@H]1CCCN(c2ccncc2Nc2ncc3ccc(Cl)nn23)C1 [Example 24, N-(4-((3S)-3-amino-1-piperidinyl)-3-pyridinyl)-2-chloroimidazo[1,5-b]pyridazin-7-amine] | 99 nM | 25 nM | – | –
9 | CN(C)c1ccncc1Nc1ncc2ccc(-c3c(F)cccc3F)nn12 [Example 26, N^3-(2-(2,6-difluorophenyl)imidazo[1,5-b]pyridazin-7-yl)-N^4,N^4-dimethyl-3,4-pyridinediamine] | > 1000 nM | 534 nM | – | –
10 | Clc1ccccc1-c1ccc2cnc(Nc3cnccc3N3CCNCC3)n2n1 [Example 5, 2-(2-chlorophenyl)-N-(4-(1-piperazinyl)-3-pyridinyl)imidazo[1,5-b]pyridazin-7-amine] | 640 nM | 107 nM | – | –
11 | Nc1cncc(-c2ccncc2Nc2ncc3ccc(-c4c(F)cccc4F)nn23)c1 [Example 29, N3′-(2-(2,6-difluorophenyl)imidazo[1,5-b]pyridazin-7-yl)-3,4′-bipyridine-3′,5-diamine] | > 1000 nM | 206 nM | – | –
12 | N[C@H]1CCCN(c2ccncc2Nc2ncc3ccc(-c4ncccc4F)nn23)C1 [Example 40, N-(4-((3S)-3-amino-1-piperidinyl)-3-pyridinyl)-2-(3-fluoro-2-pyridinyl)imidazo [1,5-b]pyridazin-7-amine] | – | – | – | IC50 (Pim-2; [4]): 1.1 nM
13 | O[C@@H]1CCCN(c2ccncc2Nc2ncc3ccc(-c4nccs4)nn23)C1 [Example 18, (3R)-1-(3-((2-(1,3-thiazol-2-yl)imidazo[1,5-b]pyridazin-7-yl)amino)-4-pyridinyl)-3-piperidinol] | > 1000 nM | 99 nM | – | –
14 | Cc1oncc1-c1ccncc1Nc1ncc2ccc(-c3c(F)cccc3F)nn12 [Example 102, 2-(2,6-Difluorophenyl)-N-(4-(5-methylisoxazol-4-yl)pyridin-3-yl)imidazo[1,5-b]pyridazin-7-amine bis(2,2,2-trifluoroacetate)] | – | – | – | IC50 (Pim-2; read-out: Pim-2 IC50 IP): > 1000 nM
15 | N[C@H]1CCCN(c2ccncc2Nc2nnc3ccc(-c4c(F)cccc4F)nn23)C1 [Example 67, (S)-N-(4-(3-aminopiperidin-1-yl)pyridin-3-yl)-6-(2,6-difluorophenyl)-[1,2,4]triazolo[4,3-b]pyridazin-3-amine 2,2,2-trifluoroacetate] | – | – | 4.5 nM | IC50 (Pim-2; [4]): 35.4 nM
16 | N[C@H]1CCCN(c2sncc2Nc2ncc3ccc(-c4c(F)cccc4F)nn23)C1 [Example 31, N-(5-((3S)-3-amino-1-piperidinyl)-4-isothiazolyl)-2-(2,6-difluorophenyl)imidazo[1,5-b]pyridazin-7-amine dihydrochloride] | 136 nM | – | – | IC50 (Pim-1; read-out: Pim_1_IC50): 50 nM
17 | N[C@H]1CCCN(c2ccncc2Nc2nnc3cccnn23)C1 [Example 68, 2,2,2-trifluoroacetate] | – | – | 38.3 nM | IC50 (Pim-2; [4]): 73.7 nM
18 | N[C@H]1CCCN(c2ncncc2Nc2ncc3ccc(-c4ccccc4F)nn23)C1 [Example 14, (S)-N-(4-(3-aminopiperidin-1-yl)pyrimidin-5-yl)-2-(2-fluorophenyl)imidazo[1,5-b]pyridazin-7-amine] | 160 nM | 35 nM | – | –
19 | Clc1ccccc1-c1ccc2cnc(Nc3cnccc3O[C@@H]3CCCNC3)n2n1 [Example 10, 2-(2-chlorophenyl)-N-(4-((3R)-3-piperidinyloxy)-3-pyridinyl)imidazo[1,5-b]pyridazin-7-amine bis(2,2,2-trifluoroacetate)] | > 1000 nM | 409 nM | – | –
20 | N[C@H]1CCCN(c2cnccc2Nc2ncc3ccc(-c4c(F)cccc4F)nn23)C1 [Example 80, (S)-N-(3-(3-aminopiperidin-1-yl)pyridin-4-yl)-2-(2,6-difluorophenyl)imidazo[1,5-b]pyridazin-7-amine tetra(2,2,2-trifluoroacetate)] | – | – | > 1000 nM | IC50 (Pim-2; [4]): > 1000 nM
21 | N[C@@H]1CCCN(c2ccncc2Nc2ncc3ccc(-c4c(F)cccc4F)nn23)C1 [Example 69, (R)-N-(4-(3-aminopiperidin-1-yl)pyridin-3-yl)-2-(2,6-difluorophenyl)imidazo[1,5-b]pyridazin-7-amine] | – | – | 7.6 nM | IC50 (Pim-2; [4]): 35.2 nM
22 | CC(C)CN(C)c1ccncc1Nc1ncc2ccc(-c3c(F)cccc3F)nn12 [Example 81, N3-(2-(2,6-Difluorophenyl)imidazo[1,5-b]pyridazin-7-yl)-N4-isobutyl-N4-methylpyridine-3,4-diamine] | – | – | 33.8 nM | –
23 | O[C@@H]1CCN(c2ccncc2Nc2ncc3ccc(-c4c(F)cccc4F)nn23)C[C@H]1O (single isomer, unassigned) [Example 34, 1-(3-((2-(2,6-difluorophenyl)imidazo[1,5-b]pyridazin-7-yl)amino)-4-pyridinyl)-3,4-trans-piperidinediol] | – | – | 66.9 nM | –
